According to publication PMC9385959, “Mammalian derived lipocalin and secretoglobin respiratory allergens strongly bind ligands with potentially immune modulating properties” (Frontiers in Allergy, 2022):
Like-named read-outs stand apart in the source and are kept apart here.

Tests used:
Ory c 3 = Ory c 3 (Oryctolagus cuniculus, UniProt Q9GK63+Q9GK67); assay: Competitive fluorescence-quenching assay, Ory c 3; format: binding, rabbit; details: for inhibition at 50 µM: read-out: Mean fluorescence inhibition
Procedure: (§1) Fluorescence quenching assays were performed as previously described ([45]), with modifications. Fluorochromes and ligands were purchased from Sigma Aldrich (Steinheim, Germany), Carl Roth (Karlsruhe, Germany) and TCI Europe N.V. (Zwijndrecht, Belgium).
(§2) Stock solutions were prepared at a concentration of 10 mM in 100% ethanol for the fluorochromes 1-aminoanthracene (1-AMA), 8-anilino-1-naphthalensulfonic acid (1,8-ANS) and for all ligands, and in 100% methanol for n-phenyl-1-naphthylamine (1-NPN), respectively. Iron catecholate ligands (siderophores) were prepared as previously described ([46]). Fluorochrome-protein complexes were analyzed at an equimolar concentration of 5 μM in PBS with 5% ethanol in a volume of 100 μL per well in black 96-well non-binding microplates (Greiner Bio-One GmbH, Frickenhausen, Germany). Solutions containing only protein or the respective fluorescent probe in PBS with 5% ethanol served as controls. Fluorochrome-protein complexes were incubated with orbital shaking for 10 min at 500 rpm at room temperature (RT) before measurement using the fluorescence reader TECAN Infinite 200 Pro (Tecan Trading AG, Switzerland). Excitation wavelengths were fixed at 380 nm for 1-AMA and 1,8-ANS, and 337 nm for 1-NPN. Fluorescence emission spectra were recorded in 5 nm steps between 420 and 560 nm for 1-AMA and 1,8-ANS and between 380 and 500 nm for 1-NPN. The establishment of fluorescent quenching assay parameters for each allergen is explained in the results Section Fluorescence-quenching assay set up. Binding affinities were analyzed by non-linear regression in GraphPad Prism Version 9.3.1 (GraphPad Software, LLC). For the ligand competition assays, ligands were added to fluorochrome-allergen complexes with a final buffer composition of 5% ethanol in PBS in a volume of 100 μL and incubated for 30 min at 500 rpm at RT and further equilibrated for another 30 min without shaking before fluorescence measurement.
(§3) The binding affinities of non-fluorescent ligands is inferred to by their ability to compete and displace the fluorochromes bound to the allergen at a certain concentration. This leads to a measurable decrease in fluorescence intensity that will be expressed as fluorescence inhibition (Figure 6). For a given allergen, the ligand with the strongest inhibition has the highest binding affinity. […] Competitive ligand binding was analyzed by non-linear regression and inhibitory dissociation constants (Ki) were calculated.

Ory c 2 = assay: Competitive fluorescence-quenching assay, Ory c 2; format: binding, rabbit; details: for Mean fluorescence inhibition: 5 μM Ory c 2-1-AMA complex, 50 μM ligand, n = 2; for Ki: 5 μM Ory c 2, fluorochrome 1-AMA, read-out: Ligand inhibition constant Ki
Procedure: as §1, §2, §3

Fel d 1 = target: T1, Fel d 1 (Felis catus, UniProt P30438+P30440); assay: Competitive fluorescence-quenching assay, Fel d 1; format: binding, cat; details: for Ki: Ligand inhibition constant Ki
T1 construct: polyhistidine tag (C); made in house; host or cells: E. coli Rosetta-gami 2
T1 sequence (P30438+P30440 with tags, fused parts or gaps): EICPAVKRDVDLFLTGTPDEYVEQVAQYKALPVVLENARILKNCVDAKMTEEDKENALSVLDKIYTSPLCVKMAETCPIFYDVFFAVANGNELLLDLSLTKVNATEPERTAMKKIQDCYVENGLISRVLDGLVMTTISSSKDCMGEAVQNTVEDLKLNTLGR
Procedure: as §1, §2, §3

Cav p 1.0201 = Cav p 1.0201 (Cavia porcellus, UniProt A0A484HRI4); assay: Competitive fluorescence-quenching assay, Cav p 1.0201; format: binding, guinea pig; details: for inhibition at 50 µM: 5 μM Cav p 1.0201-1-AMA complex, 50 μM ligand, n = 2
Procedure: as §1, §2, §3

Cav p 1.0101 = Cav p 1.0101 (Cavia porcellus, UniProt A0A484HM70, S19A); assay: Competitive fluorescence-quenching assay, Cav p 1.0101; format: binding, guinea pig; details: for inhibition at 50 µM: 5 μM Cav p 1.0101-1-AMA complex, 50 μM ligand, n = 2
Procedure: as §1, §2, §3

Can f 6 = target: T2, Can f 6 (Canis lupus familiaris, UniProt H2B3G5); assay: Competitive fluorescence-quenching assay, Can f 6; format: binding, dog; details: 5 μM Can f 6-1-NPN complex, 100 μM ligand; high standard error; read-out: Mean fluorescence inhibition
T2 construct: polyhistidine tag (C); made in house; host or cells: E. coli Rosetta-gami 2
T2 sequence (H2B3G5 16-190): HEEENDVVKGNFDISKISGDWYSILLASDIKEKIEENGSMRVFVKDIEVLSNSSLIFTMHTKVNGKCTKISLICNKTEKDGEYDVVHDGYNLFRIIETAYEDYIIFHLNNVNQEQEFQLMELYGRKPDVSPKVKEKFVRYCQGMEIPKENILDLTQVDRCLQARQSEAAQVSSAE
Procedure: as §1, §2, §3

Fel d 4 = target: T3, Fel d 4 (Felis catus, UniProt Q5VFH6); assay: Competitive fluorescence-quenching assay, Fel d 4; format: binding, cat; details: for inhibition at 100 µM: 5 μM Fel d 4-1-NPN complex, 100 μM ligand, read-out: Mean fluorescence inhibition
T3 construct: polyhistidine tag (C); made in house; host or cells: E. coli Rosetta-gami 2
T3 sequence (Q5VFH6 16-186): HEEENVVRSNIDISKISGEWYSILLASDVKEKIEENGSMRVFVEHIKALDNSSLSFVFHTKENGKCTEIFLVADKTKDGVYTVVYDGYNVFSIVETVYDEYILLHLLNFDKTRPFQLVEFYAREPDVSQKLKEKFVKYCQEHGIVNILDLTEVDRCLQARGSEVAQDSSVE
Procedure: as §1, §2, §3

Can f 1 = target: T4, Can f 1 (Canis lupus familiaris, UniProt O18873); assay: Competitive fluorescence-quenching assay, Can f 1; format: binding, dog; details: for inhibition at 50 µM: read-out: Mean fluorescence inhibition
T4 construct: made in house; host or cells: E. coli Rosetta-gami 2(DE3)
Procedure: as §1, §2, §3

human LCN1 = target: T5, human LCN1 (Homo sapiens, UniProt P31025); assay: Competitive fluorescence-quenching assay, LCN1; format: binding; details: for inhibition at 50 µM: 5 μM LCN1-1,8-ANS complex, 50 μM ligand, n = 2
T5 construct: made in house; host or cells: E. coli Rosetta-gami 2(DE3)
Procedure: as §1, §2, §3

[1] = 5 μM Ory c 3-1-AMA complex, 50 μM ligand, n = 2
[2] = read-out: Mean fluorescence inhibition, 5 μM Fel d 1 + 1,8-ANS complex, 100 μM ligand
[3] = Ligand inhibition constant Ki, 5 μM Cav p 1.0101, fluorochrome 1-AMA
[4] = 5 μM Fel d 1 + 1,8-ANS complex, 100 μM ligand, read-out: Mean fluorescence inhibition
[5] = 5 μM Fel d 1 + 1-NPN complex, 100 μM ligand, read-out: Mean fluorescence inhibition
[6] = read-out: Mean fluorescence inhibition, 5 μM Fel d 1 + 1-NPN complex, 100 μM ligand

Structure (SMILES)	inhibition at 50 µM (Ory c 3; [1]) [%]	Mean fluorescence inhibition (Ory c 2) [%]	inhibition at 100 µM (Fel d 1; [2]) [%]	inhibition at 50 µM (Cav p 1.0201) [%]	inhibition at 50 µM (Cav p 1.0101) [%]	inhibition at 100 µM (Fel d 1; [4]) [%]	other results
CCCCCCCCCCO [1-Decanol, 1-decanol]	98	75.1	68.4	98.2	99	–	Ki (Ory c 3): 700 nM; Ki (Cav p 1.0201): 1100 nM; Ki (Cav p 1.0101; [3]): 800 nM
CCCCCCCCCCCCO [1-Dodecanol, 1-dodecanol]	95.6	84.6	–	97	98.9	44.2	–
CC(C)c1ccccc1O [2-Isopropylphenol, 2-isopropylphenol]	–	–	–	–	–	–	inhibition at 100 µM (Can f 6): 105%; Ki (Fel d 4; 5 μM Fel d 4, fluorochrome 1-NPN, to be interpreted with caution, imprecise Ki values, read-out: Ligand inhibition constant Ki): 20100 nM; inhibition at 100 µM (Fel d 4): 99.5%
CC(C)CCCC(C)CCO (centres unmarked) [3,7-dimethyl-1-octanol]	91.1	72.5	–	80.3	96.4	58.3	inhibition at 100 µM (Fel d 1; [5]): 85.4%; inhibition at 100 µM (Can f 6): 100%; inhibition at 100 µM (Fel d 4): 89.5%
CC(C)c1cccc(O)c1 [3-Isopropylphenol, 3-ilsopropylphenole]	–	89.5	–	75.7	55.3	–	inhibition at 100 µM (Can f 6): 107%; inhibition at 100 µM (Fel d 4): 89.5%
CCCc1ccc(O)cc1 [4-Propylphenol, 4-propylphenol]	93.2	93.2	52.8	57	65.7	–	Ki (Ory c 2): 2600 nM; inhibition at 100 µM (Fel d 1; [6]): 65.3%
CCCCC/C=C\C/C=C\C/C=C\C/C=C\CCCC(=O)O [Arachidonic acid, arachidonic acid]	–	–	–	–	–	–	Ki (Can f 1): 1300 nM; inhibition at 50 µM (Can f 1): 86.4%; Ki (human LCN1; 5 μM LCN1, fluorochrome 1,8-ANS, read-out: Ligand inhibition constant Ki): 1900 nM; inhibition at 50 µM (human LCN1): 96.7%
CCCCCCCCO [Caprylic alcohol, 1-octanol]	68.8	65.3	–	82.1	86.7	56.5	inhibition at 100 µM (Fel d 1; [5]): 49.2%
CCCCCCCCCC(=O)O [Decanoic acid, decanoic acid]	76.1	–	71.2	–	–	–	inhibition at 100 µM (Fel d 1; [6]): 101%
CCCCCCCCCCCC(=O)O [Dodecanoic acid, dodecanoic acid]	–	–	75.2	–	–	–	inhibition at 50 µM (Ory c 3): 76.2%; Ki (Fel d 1; 5 μM Fel d 1, fluorochrome 1,8-ANS): 26700 nM; Ki (Fel d 1; 5 μM Fel d 1, fluorochrome 1-NPN): 14400 nM; inhibition at 100 µM (Fel d 1; [6]): 91.7%
CC(C)=CCC/C(C)=C/CC/C(C)=C/CO [Farnesol, farnesol]	91.3	96.0	–	95.5	98.9	11.2	Ki (Ory c 2): 1100 nM; Ki (Cav p 1.0201; 5 μM Cav p 1.0201, fluorochrome 1-AMA, read-out: Ligand inhibition constant Ki): 600 nM; Ki (Cav p 1.0101; Ki (printed in Figure 6D), Cav p 1.0101, titration 0–60 μM ligand, unit inferred): 580 nM; Ki (Cav p 1.0101; [3]): 600 nM; inhibition at 50 µM (Can f 1; 5 μM Can f 1-1,8-ANS complex, 50 μM ligand, n = 2): 43.1%; inhibition at 50 µM (human LCN1): 90.9%
